Data on 15 compounds can be found in ChEMBL document CHEMBL2034904, “A new series of N5 derivatives of the 1,1,5-trimethyl furo[3,4-c]pyridine-3,4-dione (cerpegin) selectively inhibits the post-acid activity of mammalian 20S proteasomes” (Bioorg Med Chem Lett, 2012).

SMILES strings stand for the structures. Calls of active or inactive are those of the source. The rule behind the calls is not given here.

The species named for one assay is Oryctolagus cuniculus. Nature of the assay: Inhibition of trypsin-like activity of 20S proteasome catalytic core from rabbit erythrocytes using Boc-LRR-AMC as substrate at 100 uM preincubated for 15 mins prior to substrate addition measured after 45 mins.
Conditions: not given
With `CCOC(=O)Cn1ccc2c(c1=O)C(=O)OC2(C)C`, the inhibition result was “inactive”.
Same read-out and setting: with `C=CCOCC(O)Cn1ccc2c(c1=O)C(=O)OC2(C)C` (stereo not given) the entry was “inactive”; with `CC1(C)OC(=O)c2c1ccn(CCc1ccc(Cl)cc1)c2=O`, 50%; with `CC1(C)OC(=O)c2c1ccn(CCCN1CCOCC1)c2=O`, “inactive”.
The same measure, in the same setting: as for `CC1(C)OC(=O)c2c1ccn(CC(O)CO)c2=O` (stereo not given), the entry is “inactive”.
For the compound `COc1ccc(CCn2ccc3c(c2=O)C(=O)OC3(C)C)cc1`, the inhibition entry is “inactive”.
Still for that read-out and setting: with `CC1(C)OC(=O)c2c1ccn(CC(O)CN1CCCCC1)c2=O` (stereo not given) the entry was “inactive”.
Consider `Cn1ccc2c(c1=O)C(=O)OC2(C)C` [CERPEGIN], for which the inhibition result was “inactive”.
In the case of `CC1(C)OC(=O)c2c1ccn(CCc1ccc(F)cc1)c2=O`, the inhibition entry is “inactive”.
Same read-out and setting: with `CC1(C)OC(=O)c2c1ccn(CC(O)CN1CCN(Cc3ccccc3)CC1)c2=O` (stereo not given) the entry was “inactive”.
Same read-out and setting: with `CC1(C)OC(=O)c2c1ccn(Cc1ccc(Cl)cc1)c2=O` the figure was 20%.
Take `CC1(C)OC(=O)c2c1ccn(CCNc1ccc([N+](=O)[O-])cn1)c2=O`: the inhibition entry is “inactive”.
Still for that read-out and setting: with `CC1(C)OC(=O)c2c1ccn(Cc1ccc(Cl)cc1Cl)c2=O` the entry was “inactive”.

Another assay is filed under the species Oryctolagus cuniculus. Nature of the assay: Inhibition of caspase-like activity of 20S proteasome catalytic core from rabbit erythrocytes using Z-LLE-NA as substrate at 100 uM preincubated for 15 mins prior to substrate addition measured after 45 mins.
Conditions: not given
For `COc1ccc(CCn2ccc3c(c2=O)C(=O)OC3(C)C)cc1`, the inhibition result was “inactive”.
On the same count and under the same terms, with `CC1(C)OC(=O)c2c1ccn(CCNc1ccc([N+](=O)[O-])cn1)c2=O` the figure was 23.4%.

Test system in another assay: not listed separately
Kind of assay: Inhibition of chymotrypsin-like activity of 20S proteasome catalytic core from human erythrocytes using Suc-LLVY-AMC as substrate preincubated for 15 mins prior to substrate addition measured after 45 mins.
Conditions: not given
For the compound `CC1(C)OC(=O)c2c1ccn(NC(N)=S)c2=O`, the IC50 was 8.4 µM.

The species named for the next assay is Homo sapiens. Nature of the assay: Inhibition of calpain-1 from human erythrocytes using […] as substrate.
Conditions: not given
Turning to `CC1(C)OC(=O)c2c1ccn(NC(N)=S)c2=O`, the inhibition result was “inactive”.
On the same count and under the same terms, with `CCN(CC)CC(O)Cn1ccc2c(c1=O)C(=O)OC2(C)C` (stereo not given) the entry was “inactive”.
On the same count and under the same terms, as for `CCOC(=O)Cn1ccc2c(c1=O)C(=O)OC2(C)C`, the entry is “inactive”; as for `C=CCOCC(O)Cn1ccc2c(c1=O)C(=O)OC2(C)C` (stereo not given), “inactive”.
Still for that read-out and setting: with `CC1(C)OC(=O)c2c1ccn(CCc1ccc(Cl)cc1)c2=O` the entry was “inactive”; with `CC1(C)OC(=O)c2c1ccn(CCCN1CCOCC1)c2=O`, “inactive”; with `CC1(C)OC(=O)c2c1ccn(CC(O)CO)c2=O` (stereo not given), “inactive”.
For `COc1ccc(CCn2ccc3c(c2=O)C(=O)OC3(C)C)cc1`, the inhibition entry is “inactive”.
On the same count and under the same terms, as for `CC1(C)OC(=O)c2c1ccn(CC(O)CN1CCCCC1)c2=O` (stereo not given), the entry is “inactive”.
Same read-out and setting: with `Cn1ccc2c(c1=O)C(=O)OC2(C)C` [CERPEGIN] the entry was “inactive”; with `CC1(C)OC(=O)c2c1ccn(CCc1ccc(F)cc1)c2=O`, “inactive”.
Still for that read-out and setting: as for `CC1(C)OC(=O)c2c1ccn(CC(O)CN1CCN(Cc3ccccc3)CC1)c2=O` (stereo not given), the entry is “inactive”.
As for `CC1(C)OC(=O)c2c1ccn(Cc1ccc(Cl)cc1)c2=O`, the inhibition entry is “inactive”.
The same measure, in the same setting: with `CC1(C)OC(=O)c2c1ccn(CCNc1ccc([N+](=O)[O-])cn1)c2=O` the entry was “inactive”; with `CC1(C)OC(=O)c2c1ccn(Cc1ccc(Cl)cc1Cl)c2=O`, “inactive”.

The species named for the next assay is Oryctolagus cuniculus. Nature of the assay: Inhibition of chymotrypsin-like activity of 20S proteasome catalytic core from rabbit erythrocytes using Suc-LLVY-AMC as substrate at 100 uM preincubated for 15 mins prior to substrate addition measured after 45 mins.
Conditions: not given
For `CCN(CC)CC(O)Cn1ccc2c(c1=O)C(=O)OC2(C)C` (stereo not given), the inhibition result was “inactive”.
For the compound `CCOC(=O)Cn1ccc2c(c1=O)C(=O)OC2(C)C`, the inhibition result is “inactive”.
Take `C=CCOCC(O)Cn1ccc2c(c1=O)C(=O)OC2(C)C` (stereo not given): the inhibition result is “inactive”.
Take `CC1(C)OC(=O)c2c1ccn(CCc1ccc(Cl)cc1)c2=O`: the inhibition entry was “inactive”.
Same read-out and setting: with `CC1(C)OC(=O)c2c1ccn(CCCN1CCOCC1)c2=O` the entry was “inactive”; with `CC1(C)OC(=O)c2c1ccn(CC(O)CO)c2=O` (stereo not given), “inactive”; with `COc1ccc(CCn2ccc3c(c2=O)C(=O)OC3(C)C)cc1`, “inactive”.
Still for that read-out and setting: as for `CC1(C)OC(=O)c2c1ccn(CC(O)CN1CCCCC1)c2=O` (stereo not given), the entry is “inactive”.
`Cn1ccc2c(c1=O)C(=O)OC2(C)C` [CERPEGIN]: the inhibition entry was “inactive”.
The same measure, in the same setting: with `CC1(C)OC(=O)c2c1ccn(CCc1ccc(F)cc1)c2=O` the entry was “inactive”.
The same measure, in the same setting: as for `CC1(C)OC(=O)c2c1ccn(CC(O)CN1CCN(Cc3ccccc3)CC1)c2=O` (stereo not given), the entry is “inactive”; as for `CC1(C)OC(=O)c2c1ccn(Cc1ccc(Cl)cc1)c2=O`, 21%.
On the same count and under the same terms, as for `CC1(C)OC(=O)c2c1ccn(CCNc1ccc([N+](=O)[O-])cn1)c2=O`, the entry is “inactive”.
In the case of `CC1(C)OC(=O)c2c1ccn(Cc1ccc(Cl)cc1Cl)c2=O`, the inhibition result is “inactive”.

Test system in a further assay: not listed separately
Kind of assay: Inhibition of trypsin-like activity of 20S proteasome catalytic core from rabbit erythrocytes using Boc-LRR-AMC as substrate preincubated for 15 mins prior to substrate addition measured after 45 mins. The arrangement: species or system Oryctolagus cuniculus.
Conditions: not given
In the case of `CC1(C)OC(=O)c2c1ccn(NC(N)=S)c2=O`, the IC50 is 10.1 µM.
Still for that read-out and setting: with `CCN(CC)CC(O)Cn1ccc2c(c1=O)C(=O)OC2(C)C` (stereo not given) the figure was 90 µM.

The species entered for the next assay is Oryctolagus cuniculus. Nature of the assay: Inhibition of rabbit 20S proteasome chymotrypsin-like activity using […] as substrate at 10 to 50 uM. The note with it: TDE = time-dependent effect.
`CC1(C)OC(=O)c2c1ccn(NC(N)=S)c2=O`: the inhibition result was “tde”.

The species entered for another assay is Oryctolagus cuniculus. Nature of the assay: Irreversible inhibition of rabbit 20S proteasome chymotrypsin-like activity using […] as substrate at 10 to 50 uM from 5 to 60 mins.
Conditions: not given
For the compound `CC1(C)OC(=O)c2c1ccn(NC(N)=S)c2=O`, the inhibition result was “Active”.

Test system in another assay: not listed separately
Kind of assay: Inhibition of trypsin-like activity of 20S proteasome catalytic core from human erythrocytes using Boc-LRR-AMC as substrate preincubated for 15 mins prior to substrate addition measured after 45 mins.
Conditions: not given
The compound `CC1(C)OC(=O)c2c1ccn(NC(N)=S)c2=O` had an IC50 of 10.2 µM.

Biological target in the next assay: not listed separately
Nature of the assay: Inhibition of caspase-like activity of 20S proteasome catalytic core from human erythrocytes using Z-LLE-NA as substrate preincubated for 15 mins prior to substrate addition measured after 45 mins.
Conditions: not given
The compound `CC1(C)OC(=O)c2c1ccn(NC(N)=S)c2=O` registered a half-inhibitory concentration (IC50) of 9.7 µM. In other words, the single-digit micromolar range.

Biological target in the next assay: not listed separately
Nature of the assay: Inhibition of caspase-like activity of 20S proteasome catalytic core from rabbit erythrocytes using Z-LLE-NA as substrate preincubated for 15 mins prior to substrate addition measured after 45 mins. The arrangement: species or system Oryctolagus cuniculus.
Conditions: not given
On to `CC1(C)OC(=O)c2c1ccn(NC(N)=S)c2=O`, for which the IC50 was 10.7 µM.
On the same count and under the same terms, with `CCN(CC)CC(O)Cn1ccc2c(c1=O)C(=O)OC2(C)C` (stereo not given) the figure was 6.1 µM.
Same read-out and setting: as for `CCOC(=O)Cn1ccc2c(c1=O)C(=O)OC2(C)C`, the figure is 13.3 µM; as for `C=CCOCC(O)Cn1ccc2c(c1=O)C(=O)OC2(C)C` (stereo not given), 5.9 µM.
For `CC1(C)OC(=O)c2c1ccn(CCc1ccc(Cl)cc1)c2=O`, the IC50 is 20.1 µM.
Still for that read-out and setting: with `CC1(C)OC(=O)c2c1ccn(CCCN1CCOCC1)c2=O` the figure was 71.9 µM.
On the same count and under the same terms, with `CC1(C)OC(=O)c2c1ccn(CC(O)CO)c2=O` (stereo not given) the figure was 4.9 µM.
On the same count and under the same terms, with `CC1(C)OC(=O)c2c1ccn(CC(O)CN1CCCCC1)c2=O` (stereo not given) the figure was 6.1 µM; with `Cn1ccc2c(c1=O)C(=O)OC2(C)C` [CERPEGIN], 10.4 µM; with `CC1(C)OC(=O)c2c1ccn(CCc1ccc(F)cc1)c2=O`, 39.8 µM.
As to `CC1(C)OC(=O)c2c1ccn(CC(O)CN1CCN(Cc3ccccc3)CC1)c2=O` (stereo not given), the midpoint of inhibition, the IC50, lay at 69.8 µM.
`CC1(C)OC(=O)c2c1ccn(Cc1ccc(Cl)cc1)c2=O` gave a concentration for half-maximal inhibition (IC50) of 7.1 µM.
The same measure, in the same setting: with `CC1(C)OC(=O)c2c1ccn(Cc1ccc(Cl)cc1Cl)c2=O` the figure was 29.3 µM.

The target in a further assay is Cathepsin B (Homo sapiens) (UniProt P07858). Nature of the assay: Inhibition of cathepsin B from human hepatocytes using […] as substrate. The note with it: Hepatocyte.
As for `CC1(C)OC(=O)c2c1ccn(NC(N)=S)c2=O`, the inhibition entry was “inactive”.
On the same count and under the same terms, as for `CCN(CC)CC(O)Cn1ccc2c(c1=O)C(=O)OC2(C)C` (stereo not given), the entry is “inactive”; as for `CCOC(=O)Cn1ccc2c(c1=O)C(=O)OC2(C)C`, “inactive”; as for `C=CCOCC(O)Cn1ccc2c(c1=O)C(=O)OC2(C)C` (stereo not given), “inactive”.
In the case of `CC1(C)OC(=O)c2c1ccn(CCc1ccc(Cl)cc1)c2=O`, the inhibition entry was “inactive”.
The same measure, in the same setting: with `CC1(C)OC(=O)c2c1ccn(CCCN1CCOCC1)c2=O` the entry was “inactive”.
Same read-out and setting: as for `CC1(C)OC(=O)c2c1ccn(CC(O)CO)c2=O` (stereo not given), the entry is “inactive”; as for `COc1ccc(CCn2ccc3c(c2=O)C(=O)OC3(C)C)cc1`, “inactive”.
Regarding `CC1(C)OC(=O)c2c1ccn(CC(O)CN1CCCCC1)c2=O` (stereo not given), the inhibition result was “inactive”.
On the same count and under the same terms, with `Cn1ccc2c(c1=O)C(=O)OC2(C)C` [CERPEGIN] the entry was “inactive”; with `CC1(C)OC(=O)c2c1ccn(CCc1ccc(F)cc1)c2=O`, “inactive”; with `CC1(C)OC(=O)c2c1ccn(CC(O)CN1CCN(Cc3ccccc3)CC1)c2=O` (stereo not given), “inactive”.
For the compound `CC1(C)OC(=O)c2c1ccn(Cc1ccc(Cl)cc1)c2=O`, the inhibition entry was “inactive”.
Take `CC1(C)OC(=O)c2c1ccn(CCNc1ccc([N+](=O)[O-])cn1)c2=O`: the inhibition result was “inactive”.
Regarding `CC1(C)OC(=O)c2c1ccn(Cc1ccc(Cl)cc1Cl)c2=O`, the inhibition result was “inactive”.

Test system in the next assay: not listed separately
Kind of assay: Inhibition of chymotrypsin-like activity of 20S proteasome catalytic core from rabbit erythrocytes using Suc-LLVY-AMC as substrate preincubated for 15 mins prior to substrate addition measured after 45 mins. More on the design: species or system Oryctolagus cuniculus.
Conditions: not given
`CC1(C)OC(=O)c2c1ccn(NC(N)=S)c2=O` gave a half-maximal inhibitory concentration (IC50) of 8 µM. This counts as single-digit micromolar.

The inhibition is the percentage by which the read-out fell short of the control. A word on the IC50: it is the concentration that inhibits the measured activity by half. Low values mean inhibition by little substance, high ones a need for much substance.
